Assays:
ALK5/TGFBR1 = ALK5/TGFBR1 (Homo sapiens, UniProt P36897); test: kinase inhibition assay panel; format: biochemical
EGFR = EGFR (Homo sapiens, UniProt P00533); test: kinase inhibition assay panel; format: biochemical
CK1a1 = CK1a1 (Homo sapiens, UniProt P48729); test: kinase inhibition assay panel; format: biochemical
PKA = PKA (Homo sapiens, UniProt P17612); test: kinase inhibition assay panel; format: biochemical
Summary of the method: (§1)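 Radiometric filter-binding assay: kinase and substrate in 20 mM Hepes pH 7.5, 10 mM MgCl2, 1 mM EGTA, 0.02% Brij35, 0.02 mg/ml BSA, 0.1 mM Na3VO4, 2 mM DTT, 1% DMSO, with cofactors added per kinase. Started with 33P-ATP, run 120 min at room temperature, spotted on P81 paper, washed in 0.75% phosphoric acid.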

RIPK2 = RIPK2 (Homo sapiens, UniProt O43353); test: kinase inhibition assay panel; format: biochemical
Summary of the method: as §1

EPHA2 = EPHA2 (Homo sapiens, UniProt P29317); test: kinase inhibition assay panel; format: biochemical
Summary of the method: as §1

ALK4/ACVR1B = ALK4/ACVR1B (Homo sapiens, UniProt P36896); test: kinase inhibition assay panel; format: biochemical
Summary of the method: as §1

YES/YES1 = YES/YES1 (Homo sapiens, UniProt P07947); test: kinase inhibition assay panel; format: biochemical
Summary of the method: as §1

[1] = tested on: total Tau in SH-SY5Y-TMHT cells; test: Western Blot of total Tau; format: cell-based, human; details: 10 μM
Procedure: (§2) SH-SY5Y-TMHT cells are kept in culture medium (DMEM medium, 10% FCS, 1% NEAA, 1% L-Glutamine, 100 μg/ml Gentamycin, 300 μg/ml Geneticin G-418) for 2 days until 80-90% confluency. Cells are then differentiated in culture medium supplemented with 10 μM retinoic acid (RA) for 7 days changing medium every 2 to 3 days. Differentiated cells are seeded onto 6-well plates and 96-well plates at a cell density of 1.25×10^6 and 8×10^5 cells per well, respectively. On day 8 post-differentiation, the test compounds, reference compounds and vehicle control were added to the culture medium. After 6 h of compound exposure one plate of cells is subjected to a MTT assay to evaluate the effect of test and reference items on cell viability. Remaining wells are washed once with cold PBS and harvested in 300 μl RIPA-Buffer [50 mM Tris pH 7.4, 1% Nonident P40, 0.25% Na-deoxy-cholate, 150 mM NaCl, 1 mM EDTA, 1 μM NaF, 1 μM Na-ortho-vanadate, 80 mM Glycerophosphate, supplemented with freshly added protease (Calbiochem) and phosphatase (Sigma) inhibitor cocktail]. The cell suspension is transferred into a 1.5 ml tube and additionally lysed by sonication on ice. An aliquot of 20 μl is taken for the determination of the protein concentration (BCA assay). Subsequently, the lysates are snap frozen and stored at −80° C. until shipment.
(§3) Lysates of treated cells were prepared in Laemmli buffer and 10 μg loaded into each lane of a 10% Nu-PAGE gel (Invitrogen, UK). Samples were run until the coomassie blue dye fromt was within 1 cm of the bottom of the gel. The separated proteins were transferred onto nitrocellulose and blots developed using antibodies specific for total tau (Polyclonal Rabbit Anti-Human Tau, Dako, UK (cat # A0024)) and phopho-Threonine 231 (Tau (Phospho-Thr231) Antibody, Signalway Antibody, USA (cat # 11110)) respectively. In each case the bound antibody was detected using ECL Rabbit IgG, HRP-Linked (from donkey) (GE Healthcare, UK (cat # NA934))

[2] = tested on: Tau phosphorylated at Threonine 231 in SH-SY5Y-TMHT cells; test: Western Blot of Tau phosphorylated at Threonine 231; format: cell-based, human; details: for detectable level of pT231 in Tau protein: 10 μM, Western Blot; for phosphorylation of Thr 231 within Tau proteins: FIG. 5
Procedure: as §2, §3

CK1g3 = CK1g3 (Homo sapiens, UniProt Q9Y6M4); test: kinase inhibition assay panel; format: biochemical
CK1g2 = CK1g2 (Homo sapiens, UniProt P78368); test: kinase inhibition assay panel; format: biochemical
Sequence of CK1g2 (P78368 whole entry, species assumed): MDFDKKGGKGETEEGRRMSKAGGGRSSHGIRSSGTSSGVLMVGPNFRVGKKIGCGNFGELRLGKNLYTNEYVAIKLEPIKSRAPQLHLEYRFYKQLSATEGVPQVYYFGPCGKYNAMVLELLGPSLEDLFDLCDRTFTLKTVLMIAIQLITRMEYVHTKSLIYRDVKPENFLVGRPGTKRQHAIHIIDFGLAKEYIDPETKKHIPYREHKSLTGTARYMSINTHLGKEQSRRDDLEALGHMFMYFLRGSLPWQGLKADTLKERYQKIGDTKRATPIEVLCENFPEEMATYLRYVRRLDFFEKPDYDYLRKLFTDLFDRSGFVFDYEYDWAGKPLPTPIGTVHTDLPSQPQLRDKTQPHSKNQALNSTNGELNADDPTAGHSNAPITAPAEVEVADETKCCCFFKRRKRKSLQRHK

Sequence of CK1g3 (Q9Y6M4 whole entry): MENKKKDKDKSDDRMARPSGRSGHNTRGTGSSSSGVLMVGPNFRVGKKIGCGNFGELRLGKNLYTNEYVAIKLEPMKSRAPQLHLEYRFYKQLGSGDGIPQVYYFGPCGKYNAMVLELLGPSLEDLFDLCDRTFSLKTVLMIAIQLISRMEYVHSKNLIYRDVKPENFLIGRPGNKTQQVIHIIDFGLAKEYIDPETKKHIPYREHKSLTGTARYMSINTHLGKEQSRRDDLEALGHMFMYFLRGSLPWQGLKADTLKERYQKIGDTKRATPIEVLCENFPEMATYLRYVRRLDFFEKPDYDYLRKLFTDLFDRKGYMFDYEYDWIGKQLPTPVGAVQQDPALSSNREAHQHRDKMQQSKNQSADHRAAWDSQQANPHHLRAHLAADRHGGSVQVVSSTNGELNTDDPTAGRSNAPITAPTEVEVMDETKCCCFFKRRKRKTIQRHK
Sequence of CK1a1 (P48729 whole entry): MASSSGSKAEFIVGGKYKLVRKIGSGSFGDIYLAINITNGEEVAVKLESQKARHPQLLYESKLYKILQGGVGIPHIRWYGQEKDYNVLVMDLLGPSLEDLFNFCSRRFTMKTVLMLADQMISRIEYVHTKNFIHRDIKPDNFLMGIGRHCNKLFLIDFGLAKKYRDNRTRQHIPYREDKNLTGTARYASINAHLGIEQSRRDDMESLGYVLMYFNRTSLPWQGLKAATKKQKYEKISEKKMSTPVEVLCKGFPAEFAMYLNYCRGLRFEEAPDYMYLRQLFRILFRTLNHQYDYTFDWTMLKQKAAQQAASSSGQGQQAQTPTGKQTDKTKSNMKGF
Sequence of EPHA2 (P29317 24-976, species assumed): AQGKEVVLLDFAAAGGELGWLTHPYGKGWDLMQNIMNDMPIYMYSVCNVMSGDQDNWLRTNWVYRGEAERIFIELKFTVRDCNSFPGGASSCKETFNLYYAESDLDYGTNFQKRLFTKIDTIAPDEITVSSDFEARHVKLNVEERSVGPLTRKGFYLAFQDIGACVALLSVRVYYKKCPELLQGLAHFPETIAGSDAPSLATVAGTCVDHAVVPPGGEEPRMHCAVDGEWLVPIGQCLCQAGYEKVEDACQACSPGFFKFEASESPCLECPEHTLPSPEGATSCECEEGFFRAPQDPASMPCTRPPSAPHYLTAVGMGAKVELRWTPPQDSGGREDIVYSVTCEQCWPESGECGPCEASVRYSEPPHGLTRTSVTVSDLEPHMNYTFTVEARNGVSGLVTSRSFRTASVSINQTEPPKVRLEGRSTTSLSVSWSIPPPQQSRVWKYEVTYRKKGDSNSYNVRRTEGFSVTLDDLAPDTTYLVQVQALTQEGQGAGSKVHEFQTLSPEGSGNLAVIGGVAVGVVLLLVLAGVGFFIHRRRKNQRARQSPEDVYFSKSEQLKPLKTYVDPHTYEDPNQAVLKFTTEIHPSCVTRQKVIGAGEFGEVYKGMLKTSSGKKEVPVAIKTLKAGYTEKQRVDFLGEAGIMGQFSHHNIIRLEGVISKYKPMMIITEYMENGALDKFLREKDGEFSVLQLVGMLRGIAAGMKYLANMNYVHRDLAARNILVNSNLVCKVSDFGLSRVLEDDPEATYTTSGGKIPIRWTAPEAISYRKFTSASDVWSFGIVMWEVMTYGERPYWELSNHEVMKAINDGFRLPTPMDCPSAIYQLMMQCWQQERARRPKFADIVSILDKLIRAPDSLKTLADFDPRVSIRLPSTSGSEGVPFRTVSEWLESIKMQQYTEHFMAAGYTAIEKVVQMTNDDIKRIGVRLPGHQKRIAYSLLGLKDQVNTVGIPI
Sequence of ALK4/ACVR1B (P36896 24-505): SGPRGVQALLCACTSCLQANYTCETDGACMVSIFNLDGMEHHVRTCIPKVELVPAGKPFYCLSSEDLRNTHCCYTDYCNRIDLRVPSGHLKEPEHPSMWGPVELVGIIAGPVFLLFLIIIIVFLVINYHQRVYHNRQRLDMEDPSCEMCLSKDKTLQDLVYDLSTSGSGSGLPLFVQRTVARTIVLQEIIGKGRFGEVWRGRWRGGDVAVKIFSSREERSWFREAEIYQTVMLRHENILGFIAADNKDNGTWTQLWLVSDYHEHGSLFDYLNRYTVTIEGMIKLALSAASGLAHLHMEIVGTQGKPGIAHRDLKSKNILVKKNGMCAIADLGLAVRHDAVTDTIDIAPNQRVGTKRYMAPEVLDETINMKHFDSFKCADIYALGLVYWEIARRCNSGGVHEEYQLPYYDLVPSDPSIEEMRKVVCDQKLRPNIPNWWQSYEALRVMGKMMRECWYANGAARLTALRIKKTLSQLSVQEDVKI
Sequence of EGFR (P00533 25-1210, species assumed): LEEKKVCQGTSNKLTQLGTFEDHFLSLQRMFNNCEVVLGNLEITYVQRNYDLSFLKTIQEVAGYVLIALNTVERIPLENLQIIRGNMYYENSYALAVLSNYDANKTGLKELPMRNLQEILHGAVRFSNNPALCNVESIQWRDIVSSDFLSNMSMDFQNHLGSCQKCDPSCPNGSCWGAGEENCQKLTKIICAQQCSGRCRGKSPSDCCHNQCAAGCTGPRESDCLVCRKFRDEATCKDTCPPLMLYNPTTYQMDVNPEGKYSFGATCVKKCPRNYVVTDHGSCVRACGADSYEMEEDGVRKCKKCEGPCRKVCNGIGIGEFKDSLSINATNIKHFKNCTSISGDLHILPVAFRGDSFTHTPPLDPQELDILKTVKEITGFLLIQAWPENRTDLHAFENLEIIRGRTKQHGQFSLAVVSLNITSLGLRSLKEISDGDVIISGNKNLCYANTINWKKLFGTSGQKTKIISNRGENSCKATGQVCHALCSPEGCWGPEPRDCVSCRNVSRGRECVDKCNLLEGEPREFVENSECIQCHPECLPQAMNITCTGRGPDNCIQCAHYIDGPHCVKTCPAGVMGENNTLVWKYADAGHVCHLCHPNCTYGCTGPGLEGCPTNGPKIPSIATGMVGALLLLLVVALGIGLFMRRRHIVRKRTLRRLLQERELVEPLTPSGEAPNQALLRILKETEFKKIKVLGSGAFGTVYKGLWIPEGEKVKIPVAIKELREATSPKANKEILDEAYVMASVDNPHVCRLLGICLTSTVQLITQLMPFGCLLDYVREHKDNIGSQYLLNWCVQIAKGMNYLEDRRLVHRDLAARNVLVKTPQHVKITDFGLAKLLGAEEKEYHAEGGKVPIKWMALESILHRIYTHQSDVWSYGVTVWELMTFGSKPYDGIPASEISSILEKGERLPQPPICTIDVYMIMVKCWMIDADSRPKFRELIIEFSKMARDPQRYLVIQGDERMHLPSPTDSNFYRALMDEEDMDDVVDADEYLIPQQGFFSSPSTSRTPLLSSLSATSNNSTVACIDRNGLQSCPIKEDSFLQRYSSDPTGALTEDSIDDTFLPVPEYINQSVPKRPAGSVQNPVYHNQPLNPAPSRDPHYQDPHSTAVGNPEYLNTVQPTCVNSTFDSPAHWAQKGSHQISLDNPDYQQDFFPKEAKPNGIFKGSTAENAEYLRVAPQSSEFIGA
Sequence of YES/YES1 (P07947 whole entry): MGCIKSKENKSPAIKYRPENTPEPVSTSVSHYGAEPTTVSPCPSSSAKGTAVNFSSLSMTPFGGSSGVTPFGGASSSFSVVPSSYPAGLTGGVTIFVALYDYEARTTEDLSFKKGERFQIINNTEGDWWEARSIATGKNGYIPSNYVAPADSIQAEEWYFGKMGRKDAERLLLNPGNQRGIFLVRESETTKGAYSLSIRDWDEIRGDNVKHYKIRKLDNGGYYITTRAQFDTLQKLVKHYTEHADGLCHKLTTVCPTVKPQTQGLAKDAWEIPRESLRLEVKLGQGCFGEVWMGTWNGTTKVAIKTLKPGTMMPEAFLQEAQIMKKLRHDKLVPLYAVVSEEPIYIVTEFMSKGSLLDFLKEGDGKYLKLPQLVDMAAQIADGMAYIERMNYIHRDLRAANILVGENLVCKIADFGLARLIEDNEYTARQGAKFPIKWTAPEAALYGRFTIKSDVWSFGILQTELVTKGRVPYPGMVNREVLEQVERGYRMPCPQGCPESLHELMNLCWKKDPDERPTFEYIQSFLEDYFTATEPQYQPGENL
Sequence of ALK5/TGFBR1 (P36897 34-503): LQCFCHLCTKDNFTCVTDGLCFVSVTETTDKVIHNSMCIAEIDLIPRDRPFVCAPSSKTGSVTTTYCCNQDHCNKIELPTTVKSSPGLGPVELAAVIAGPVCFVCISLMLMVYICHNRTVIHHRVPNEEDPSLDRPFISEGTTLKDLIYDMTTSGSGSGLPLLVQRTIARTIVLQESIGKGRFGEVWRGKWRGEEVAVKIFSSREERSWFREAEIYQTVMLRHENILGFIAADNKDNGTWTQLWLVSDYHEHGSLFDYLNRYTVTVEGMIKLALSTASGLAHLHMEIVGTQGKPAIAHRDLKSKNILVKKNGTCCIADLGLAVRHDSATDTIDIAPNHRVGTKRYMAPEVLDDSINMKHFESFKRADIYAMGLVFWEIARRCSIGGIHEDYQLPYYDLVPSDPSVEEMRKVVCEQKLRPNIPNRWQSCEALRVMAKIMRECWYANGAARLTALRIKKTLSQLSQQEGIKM

Structure (SMILES)	inhibition of ALK5/TGFBR1 (ALK5/TGFBR1)	inhibition of EGFR (EGFR)	inhibition of CK1a1 (CK1a1)	inhibition of PKA (PKA)	inhibition of RIPK2 (RIPK2)	inhibition of EPHA2 (EPHA2)	inhibition of ALK4/ACVR1B (ALK4/ACVR1B)	inhibition of YES/YES1 (YES/YES1)	detectable levels of total Tau [1]	detectable level of pT231 in Tau protein [2]	phosphorylation of Thr 231 within Tau proteins [2]	inhibition of CK1g3 (CK1g3)	inhibition of CK1g2 (CK1g2)
Nc1ncc(-c2nc3ccccc3o2)c(-c2ccncc2)n1 [Compound 324, 5-(1,3-benzoxazol-2-yl)-4-(pyridin-4-yl)pyrimidin-2-amine]	lower than 40%	lower than 40%	lower than 40%	lower than 40%	lower than 40%	lower than 40%	lower than 40%	lower than 40%	no significant difference	reduced the detectable level of pT231	inhibit phosphorylation	lower than 40%	–
NC(=O)c1c(N)c(C(=O)c2ccc(F)cc2)n2ccccc12 [Compound 987, 2-amino-3-[(4-fluorophenyl)carbonyl]indolizine-1-carboxamide]	–	–	–	–	–	–	–	–	no significant difference	reduced the detectable level of pT231	inhibit phosphorylation	lower than 40%	lower than 40%
